Results on two compounds are retold here after patent publication US6681132B1, “Sodium magnetic reasonance imaging used in diagnosing tumors and assessing response to treatment” (The Trustees of Columbia University in the City of New York, priority 1999, dated 2004).

For one assay, the system named is DU145 cells. Briefly: APO-BRDU endlabelling of DNA fragmentation, flow cytometry, DU145. The class given is cell-based, human. Conditions: for time course of DNA fragmentation: DU 145, 24-hr sample point. The procedure:
Chemotherapy, cellular apoptosis, ion activity Cells were cultured and drugs added to media for various times. Fluorescent endlabelling techniques for flow cytometry have been described in detail (23, 97). […] TdT attaches BrdU to DNA ends, following which fluorescent antibodies for BrdU tagged the DNA fragments. Propidium iodide (PI) gives cell cycle position.
At the end of the treatment period, cells are trypsinized, resuspended in media, resuspended in PBS, resuspended in iced cold methanol free formaldehyde (1% in PBS) for 15 min, resuspended in 70% ethanol and stored at −20° C. until all samples from a given experiment are ready to run (19, 23).
Fixed cells are labeled following kit instructions (two washes with kit buffer, overnight endlabelling, two resuspensions in a rinse buffer, exposure to fluorescent antibody and treatment with propidium iodide and RNAase. Flow cytometry is performed on a Becton/Dickenson FACStar II. Individual fluorescence intensity values for 10,000 cells are obtained for each sample.
To specifically assay DNA fragmentation, a downstream response to apoptosis, uses of a terminal deoxynucleotidyl transferase labeling approach whereby fluorescent moieties are enzymatically attached to all DNA fragment ends.
A general note: Flow cytometry measures light scatter and fluorescence of single cells or particles in a stream.

The test system of assay [1] is PC3 cells. Description: Annexin V/FITC labeling of live (propidium iodide negative) cells, flow cytometry. Format: cell-based, human. The method, then: Enhanced FITC fluorescence (annexin positive response; panel B) indicated reorientation of phosphatidylserine within the cell membrane. PI was added to detect dead cells, which was both PI and annexin positive, the latter response due to internal binding of an antibody to phosphatidylserine sites accessed through membrane rupture. Control cells were mostly PI and FITC negative. The percentage of live PC3 cells that were annexin positive (vertical axis) is plotted versus time (horizontal axis) for taxotere (10 nM; filled circles) and VP-16 (10 ug/ml; filled triangles). A one dimensional annexin histogram (FITC intensity) for live cells is shown for control (bottom insert) and after 24 hrs VP-16 (top insert). Flow cytometry was performed on the Becton/Dickenson FACStar II (APO-BrdU) or exCaliber flow system (Annexing) at the Columbia University Cancer Center and analyzed using CellQuest Software.
a) Early events—reorientation of phosphatidylserine: Live cells exposed to an Annexin V/FITC conjugated antibody. Enhanced fluorescence indicates reorientation of phosphatidylserine within the cell membrane (61, 93). Propidium iodide (PI) concurrently indicates cell viability. Since trypsin cleaves the annexin binding site, for dissociating cells from explanted tumor, trypsin containing collagenase preparations were not used. Cells are dissociated by mincing the tumor with surgical scissors and passing tissue repeatedly through needles while increasing the gauge. Cells are removed from tissue culture plates using 1 mM EDTA in Ca/Mg free PBS.
Flow cytometry was used to examine a second, presumably an earlier event in the apoptotic cascade, reorientation of phosphatidylserine within the cell membrane (FIG. 3.B.). Live cells were exposed to an annexin\V/FITC conjugated antibody. For annexin labeling, cells were cultured for 1 day, treated, then lifted off the culture plate using PBS plus EDTA and exposed to Annexin V/FITC conjugated antibody. Trypsin—which cleaves the antibody binding site—was avoided.

Assay [2] has as its system PC3 cells. Description: Free [Nai] with SBFI/AM in 96 well plates, fluorescent plate reader. The class given is cell-based, human. Conditions: for earliest time of increase of mean SBFI ratio ([Nai]): 10 nM taxotere or 10 μg/ml VP-16 etoposide. From the text: For ion measurements (panels C & D), plates were run on a Fluoroskan II fluorescent plate reader (Titertek) using Titertek's computer Interface. Fura II loaded wells (panel D) had measured fluorescence intensities between 15,000 and 25,000 units whereby dye free wells had values ˜100 and 500. The wells with SBFI/AM loaded cells (panel C) had intensities between 4,000 and 9,000 units. Two excitation values were used for each well measurement. Ratios were derived by dividing fluorescent intensity at 345 nm excitation by that at 390 nm, both with a 508 nm mission filter. For all plates, dye free wells were examined for both control and drug treated cells, and served as background values for each wavelength. For [Cai] experiments a second means of determining background fluorescence, which gave statistically similar results, was exposure to 6 mM MnCl2 following the initial measurement. […] Backgrounds were subtracted from each cell in the protocol grouping prior to the ratio being derived. These individual well to well ratios for each protocol grouping were averaqed and used in the statistical tests which determined whether the changes in [Nai] and [Cai] following drug application were significant. Each value plotted below consisted of at least n=5 well ratios. As an additional control, we induced an acute [Cai] response in some control wells for each plate by adding thapsigargin after the initial measurement. Rapid and large [Cai] changes were detected in each case. To derive concentration values from the fluorescence readings, different, but standard approaches (26, 73), were taken with each dye. Both panels C and D show elevation of ion activity developing within 2-6 hours, and in the most part continuing for 18-24 hours.
b. SBFI/AM—This dual excitation wavelength dye is used in a fluorescent plate scanner. With SBFI/AM, we can treat cells cultured in black (non fluorescent) 96 well plates and measure average [Nai] of the cells in each well. [Nai] is calculated using ratio method and in situ calibration—thus ionophores (monensin and gramidicidin) eliminate the transmembrane gradient so that [Nai] can be altered by changing [Nao].
Comparison of the latency of these apoptotic markers with the ionic responses induced by taxotere and VP-16 at the same doses (10 nM and 10 ug/ml, respectively). […] Since its dual wavelength ultraviolet excitation requirement is impractical for flow cytometry, adherent cells were examined in 96 well culture plates using a fluorescent plate reader (Titertek, Fluoroskan II). […] The ratios of emission intensity at the two excitation wavelengths were calculated for each well, and the average ratio plotted for each time point (FIG. 3.C.; left vertical axis). […]

The test system of another assay is L cells. Conditions: cited from earlier work.
The mark [3] stands for this setting: 24 hrs, VP-16 10 μg/ml, taxotere 10 nM.

Turning to `COc1cc([C@@H]2c3cc4c(cc3[C@@H](O[C@@H]3O[C@@H]5CO[C@@H](C)O[C@H]5[C@H](O)[C@H]3O)[C@H]3COC(=O)[C@H]23)OCO4)cc(OC)c1O` [VP-16, etoposide], the “time course of DNA fragmentation” value with DU145 cells is “response peaks and subsides”. Besides, the endlabelling response result with DU145 cells (Du145, 8 hrs) is recorded as “No response”. In addition, the “increase of endlabelling intensity (DNA fragmentation)” value in the assay with DU145 cells (Du145, 24 hrs exposure) came out at 100 fold. Besides, the “fraction of live cells (propidium iodide negative) in the annexin V positive peak” value in the assay on PC3 cells [1] (10 μg/ml, maximum response (24 hrs)) is listed as “Up to ⅔”. The “annexin V response” value in the assay on PC3 cells [1] (17 hrs, 10 μg/ml) is “apparent”. Further, the “annexin V response” value in the assay with PC3 cells [1] (setting [3]) is reported as “pronounced”. In addition, the “standard dose relative to Kd of annexin V dose response curve” value in the assay on PC3 cells [1] (Kd measured at 24 hrs, standard dose 10 μg/ml) is “approximately 3 ×Kd”. For the same compound, the “earliest time of increase of mean SBFI ratio ([Nai])” value with PC3 cells [2] is 2 h. In addition, in the assay with L cells (K+ loss exceeds Na+ gain), the “effect on total cellular monovalent cations” value is recorded as “net reduction”. Besides, in the assay with L cells (L cells), the “effect on [Cai]” value was “elevate”, the “effect on [Nai]” value is “elevate” and the “effect on pHi” value is listed as “lowers”.

For the compound `CC(=O)O[C@@]12CO[C@@H]1C[C@H](O)[C@@]1(C)C(=O)[C@H](O)C3=C(C)[C@@H](OC(=O)[C@H](O)[C@@H](NC(=O)OC(C)(C)C)c4ccccc4)C[C@@](O)([C@@H](OC(=O)c4ccccc4)[C@H]21)C3(C)C` [taxotere], the “time course of DNA fragmentation” value with DU145 cells is “response peaks and subsides”. Moreover, in the assay on PC3 cells [1] (10 nMol/L in culture), the “time by which markers for apoptosis were detectable” value is ≤ 24 h and the “time by which markers for apoptosis were pronounced” value was ≤ 48 h. Further, the “annexin V response” value in the assay on PC3 cells [1] (setting [3]) is recorded as “much less pronounced”. In addition, in the assay on PC3 cells [1] (Kd measured at 48 hrs, standard dose 10 nM), the “standard dose relative to Kd of annexin V dose response curve” value is listed as “approximately 3 ×Kd”. Further, in the assay on PC3 cells [1] (higher drug concentrations (10.0 μM) or later times (e.g. 48 hrs)), the “annexin V response” value was “substantially greater”. The “earliest time of increase of mean SBFI ratio ([Nai])” value in the assay on PC3 cells [2] was 2 h. Moreover, in the assay with PC3 cells [2] (10 nMol/L in tissue culture), the “persistence of ionic elevations ([Nai], [Cai])” value is listed as “at least 24 hrs” and the “time by which ionic elevations ([Nai], [Cai]) were significant” value was ≤ 6 h.
